These results are taken from patent US8236826B2, “Diarylether derivatives as antitumor agents” (Otsuka Pharmaceutical Co., Ltd., priority 2005, dated 2012).

Counter-ions that a name gives are not always drawn.

Turning to `Cc1cc(N(C)CC(=O)N2CCN(Cc3ccoc3)CC2)ccc1Oc1ccc(NC(=O)c2ccc(C(F)(F)F)cc2)cn1` (as salt: hydrochloride) [Example 792], the melting point (as a rule, the temperature, or range, at which the solid turns liquid) is 158.5 to 161 °C.
Turning to `Cc1cc(N(C)CC(=O)N2CCN(Cc3ccc4c(c3)OCO4)CC2)ccc1Oc1ccc(NC(=O)c2ccc(Cl)c(Cl)c2)cn1` (as salt: hydrochloride) [Example 1512], the melting point was 183 to 185 °C (dec.).
As for `O=C(Nc1ccc(Oc2ccc(C3CCN(C(=O)CN4CCOCC4)CC3)cc2)cc1)c1ccc(Cl)c(Cl)c1` (as salt: hydrochloride) [Example 2571], the figure is 146 to 150 °C; as for `CCN(CC(=O)N1CCN(Cc2ccccc2)CC1)c1ccc(Oc2ccc(NC(=O)c3ccc(C(F)(F)F)cc3)cn2)c(C)c1` (as salt: maleate) [Example 1513], 165 to 167 °C.
For `O=C(Nc1ccc(Oc2ccc(C(=O)N3CCOCC3)cc2)cc1)c1ccc(Cl)c(Cl)c1` [Example 10], the melting point lay within 189 to 192 °C.
Turning to `O=C(Nc1ccc(Oc2ccc(C(=O)N3CCOCC3)cc2)c(F)c1)c1ccc(Cl)c(Cl)c1` [Example 11], the melting point lay in the range of 203 to 204 °C.
To `O=C(Nc1ccc(Oc2ccc(C(=O)N3CCN(c4ccccn4)CC3)cc2)nc1)c1ccc(C(F)(F)F)cc1` [Example 176] belongs 222 to 224 °C; to `CC(C)(C)OC(=O)N1CCN(C(=O)CCc2ccc(Oc3ccc(NC(=O)c4ccc(Cl)c(Cl)c4)cc3F)cc2)CC1` [Example 464], 155 to 157 °C.
Turning to `O=C(Nc1ccc(Oc2ccc(CCC(=O)N3CCN(c4cccnc4)CC3)cc2)cc1)c1ccc(Cl)c(Cl)c1` [Example 466], the melting point was 153 to 155 °C.
Compound `O=C(Nc1ccc(Oc2ccc(CCC(=O)N3CCN(c4cccnc4)CC3)cc2)c(F)c1)c1ccc(Cl)c(Cl)c1` [Example 467] came in with a melting point of 183 to 185 °C.
The compound `Cc1cc(N(C)CC(=O)N2CCN(Cc3ccoc3)CC2)ccc1Oc1ccc(NC(=O)c2ccc(Cl)c(Cl)c2)cn1` [Example 718] returned a melting point of 116.5 to 118 °C.
To `CC(=O)N(CC(=O)N1CCN(Cc2ccc3c(c2)OCO3)CC1)c1ccc(Oc2ccc(NC(=O)c3ccc(Cl)c(Cl)c3)cn2)c(C)c1` [Example 725] belongs 216 to 217 °C.
To `CCN(CC(=O)N1CCN(Cc2ccc3c(c2)OCO3)CC1)c1ccc(Oc2ccc(NC(=O)c3ccc(Cl)c(Cl)c3)cn2)c(F)c1` [Example 728] belongs 149 to 151 °C; to `CN(CC(=O)N1CCN(Cc2ccc3c(c2)OCO3)CC1)c1ccc(Oc2ccc(NC(=O)c3ccc(Cl)c(Cl)c3)cn2)c(F)c1` [Example 729], 199 to 201 °C.
As for `CC(=O)N(CC(=O)N1CCN(Cc2ccc3c(c2)OCO3)CC1)c1ccc(Oc2ccc(NC(=O)c3ccc(Cl)c(Cl)c3)cn2)c(F)c1` [Example 730], the melting point was 233 to 235 °C.
In the case of `CC(=O)N(CC(=O)N1CCN(Cc2ccccc2)CC1)c1ccc(Oc2ccc(NC(=O)c3ccc(C(F)(F)F)cc3)cn2)cc1` [Example 771], the melting point was in the range of 161 to 162 °C.
Compound `CCN(CC(=O)N1CCN(Cc2ccc3c(c2)OCO3)CC1)c1ccc(Oc2ccc(NC(=O)c3ccc(C(F)(F)F)cc3)cn2)cc1` [Example 774] displayed a melting point of 178 to 180 °C.
In turn, `CCN(CC(=O)N1CCN(Cc2ccc3c(c2)OCO3)CC1)c1ccc(Oc2ccc(NC(=O)c3ccc(C(F)(F)F)cc3)cn2)c(F)c1` [Example 775] had a melting point of 170 to 172 °C.
`CN(CC(=O)N1CCN(Cc2ccc3c(c2)OCO3)CC1)c1ccc(Oc2ccc(NC(=O)c3ccc(C(F)(F)F)cc3)cn2)c(F)c1` [Example 776]: the melting point was 220 to 221 °C.
`CCN(CC(=O)N1CCN(Cc2ccoc2)CC1)c1ccc(Oc2ccc(NC(=O)c3ccc(C(F)(F)F)cc3)cn2)c(OC)c1` [Example 784] came in with a melting point of 174 to 176 °C.
Take `COc1cc(N(C)CC(=O)N2CCN(Cc3ccoc3)CC2)ccc1Oc1ccc(NC(=O)c2ccc(C(F)(F)F)cc2)cn1` [Example 785]: the melting point lay within 160 to 164 °C.
As for `Br.CN(CC(=O)N1CCN(Cc2ccc3c(c2)OCO3)CC1)c1cc(F)c(Oc2ccc(C(=O)Nc3ccc(C(F)(F)F)cc3)cn2)cc1F` [Example 1037, 6-(4-{[2-(4-Piperonylpiperazin-1-yl)-2-oxoethyl]methylamino}-2,5-difluorophenoxy)-N-(4-trifluoromethylphenyl)nicotinamide hydrobromide], the melting point lay within 224.5 to 226 °C.
`O=C(Nc1ccc(Oc2ccc(N3CCN(Cc4ccccc4)C3=O)cc2)nc1)c1ccc(C(F)(F)F)cc1` [Example 1181] showed a melting point of 203 to 204 °C.
In the case of `O=C(Nc1ccc(Oc2ccc(N3CCN(Cc4ccccc4)C3=O)cc2)nc1)c1ccc(Cl)c(Cl)c1` [Example 1182], the melting point was 186 to 187 °C.
`Cc1cc(N2CCCN(Cc3ccc4c(c3)OCO4)C2=O)ccc1Oc1ccc(NC(=O)c2ccc(C(F)(F)F)cc2)cn1` [Example 1183]: the melting point lay within 165 to 166 °C.
`Cc1cc(N2CCCN(Cc3ccc4c(c3)OCO4)C2=O)ccc1Oc1ccc(NC(=O)c2ccc(Cl)c(Cl)c2)cn1` [Example 1184] yielded a melting point of 122 to 124 °C.
As for `COc1ccc(CN2CCCN(c3ccc(Oc4ccc(NC(=O)c5ccc(C(F)(F)F)cc5)cn4)c(C)c3)C2=O)cc1OC` [Example 1185], the figure is 155 to 157 °C; as for `Cc1cc(N2CCCN(CC(=O)N3CCN(Cc4ccc5c(c4)OCO5)CC3)C2=O)ccc1Oc1ccc(NC(=O)c2ccc(C(F)(F)F)cc2)cn1` [Example 1186], 182 to 183.5 °C; as for `COc1ccc(CN2CCCN(c3ccc(Oc4ccc(NC(=O)c5ccc(Cl)c(Cl)c5)cn4)c(C)c3)C2=O)cc1OC` [Example 1187], 117 to 118 °C.
To `CCOC(=O)c1ccc(N2CCCN(c3ccc(Oc4ccc(NC(=O)c5ccc(C(F)(F)F)cc5)cn4)c(C)c3)C2=O)cc1` [Example 1188] belongs 160 to 161 °C; to `Cc1cc(N2CCN(Cc3ccc4c(c3)OCO4)C2=O)ccc1Oc1ccc(NC(=O)c2ccc(C(F)(F)F)cc2)cn1` [Example 1504, N-{6-[2-methyl-4-(2-oxo-3-piperonylimidazolidin-1-yl)phenoxy]pyridin-3-yl}-4-trifluoromethylbenzamide], 188 to 189 °C; to `CCN(CC(=O)N1CCN(Cc2ccccc2)CC1)c1ccc(Oc2ccc(NC(=O)c3ccc(Cl)c(Cl)c3)cn2)c(C)c1` [Example 1514], 102 to 105 °C.
As to `Cc1cc(N(C)CC(=O)N2CCN(Cc3ccccc3)CC2)ccc1Oc1ccc(NC(=O)c2ccc(C(F)(F)F)cc2)cn1` [Example 1515], the melting point lay within 110 to 111 °C.
Consider `Cc1cc(N(C)CC(=O)N2CCN(Cc3ccccc3)CC2)ccc1Oc1ccc(NC(=O)c2ccc(Cl)c(Cl)c2)cn1` [Example 1516], for which the melting point lay within 111 to 113 °C.
`CN(CC(=O)N1CCN(Cc2ccc3c(c2)OCO3)CC1)c1ccc(Oc2ccc(NS(=O)(=O)c3ccc(Cl)c(Cl)c3)cn2)c(F)c1` [Example 1615, 3,4-dichloro-N-[6-(2-fluoro-4-{methyl[2-oxo-2-(4-piperonylpiperazin-1-yl)ethyl]amino}phenoxy)pyridin-3-yl]benzenesulfonamide] had a melting point of 185.6 to 187 °C.
